In patent US20230364118A1, “RIBITOL TREATMENT” (priority 2020, published 2023):
Where two headings read alike, the source gives them in different places.

Tests used:
[1] = Single intravenous dose PK; format: in vivo, Bama minipig; conditions: for CLs: Bama minipigs
Description: The PK of ribitol was studied in 2 male and 2 female Bama minipigs following escalating IV doses levels using the same animals with a 48 hour washout period at 10 mg/kg (Day 1), 30 mg/kg (Day 3) and 100 mg/kg (Day 5). On each dosing day, blood samples were collected serially up to 24 hours post dose.

[2] = Phase 1 SAD/MAD study in healthy subjects; format: in vivo, human; conditions: for Cmax / Tmax / AUC(0-t): human, in vivo, oral, steady state, 6 days; for AUC(0-t): read-out: AUC(0-24)
Description: The study described below is a randomized, blinded, placebo-controlled, parallel group study of the administration of single ascending doses (SAD) and multiple ascending doses (MAD) of ribitol to healthy subjects. The SAD part of this study includes 1 food effect (FE) cohort. The SAD and MAD phases of the study are nested.
Up to a maximum of 6 cohorts will be enrolled. The starting dose will be 0.5 g. Tentative dose levels will be 1.5 g, 3 g, 6 g, and 12 g, however, actual dose increments (including possible decrements) for Cohorts 2 and above will be determined by the safety review committee (SRC) and based on a minimum of 24 h of post dose PK data and at least 72 h post dose safety data from the previous dose level. A sentinel dosing plan will be employed at each dose level where the first 2 healthy participants (1 ribitol, 1 placebo) of each cohort will be dosed as sentinels at least 24 h prior to dosing the remaining cohort's participants. Once the informed consent form (ICF) is signed and eligibility criteria are determined, subjects will be admitted to the clinical research unit (CRU) 1 day prior to dosing (Day −1). Continuous cardiac monitoring using telemetry will be performed starting at least 12 h prior to dosing through at least 24 h after dosing.
Subjects will be admitted to the CRU 1 day prior to dosing (Day −1). On Day 1, subjects will start a 6-day course of orally administered daily study drug together with water after an overnight fast of at least 10 h prior to through at least 4 h after dosing. If dosing occurs more than once per day based on the data from the SAD cohort(s), instructions for dosing and any relaxation of the fasting requirements will be provided in a separate document. Water ad libitum is permitted except 1 h prior to through 1 h after dosing. Subjects will remain in the CRU until Day 8. Vital signs, ECGs, evaluation of AEs and blood draws for PK and safety laboratory tests will be obtained serially (see Schedule of Assessments, below). Subjects will return for an EOS visit on Day 10 (+5 day window allowed).
In the Phase 1 study, conducted essentially as described above, in Example 3. Subject in the single dose arm received 0.5, 1.5, 3, 6, 9, 12, or 15 grams of ribitol (data not shown). […] Subjects in the multiple dose arm received 1.5 g once daily, 3 g once daily, 3 g twice daily (q 12 h), 6 g twice daily (q 12 h), and 9 g twice daily (q 12 h). Subjects in the 3 g BID arm achieved steady-state AUC(0-24) values about the target threshold set by animal studies (182 μg*h/mL).
Clinical studies were performed as described in Example 3, with the exception that two additional doses of ribitol (9 g and 15 g) were administered in the SAD arm, i.e., the SAD doses were 0.5 g, 1.5 g, 3 g, 6 g, 9 g, 12 g, and 15 g ribitol.

[3] = 7-day repeat-dose oral toxicokinetics; format: in vivo, CD-1 mouse; conditions: for Cmax / Tmax / AUC(0-t): CD-1, mouse, plasma, po; for AUC(0-t): read-out: AUC0-24
Description: Toxicokinetics were evaluated as part of a 7-day oral repeat-dose dose range finding study in CD-1 mice. […] On Days 1 and 7, blood was collected for plasma toxicokinetics (TK) from the treatment groups at 0 (pre-first dose), 0.5, 2, 4, 6 (pre-second dose), 6.5, 8, 10, 12, and 24 hours post-first dose. In the vehicle control group, blood was collected for plasma TK on Day 1 and Day 7 at 0.5 and 6.5 hours post-first dose.

[4] = 3 g, 3 g q 12 h (total 6 g/day)
[5] = 6 g q 12 h, 6 g q 12 h (total 12 g/day)
[6] = 9 g, 9 g q 12 h (total 18 g/day)
[7] = single doses 0.5, 1.5, 3, 6, 9, 12, 15 g
[8] = female, 0.5 g/kg, 0.5 g/kg/dose BID, Day 1, F
[9] = female, 0.5 g/kg, 0.5 g/kg/dose BID, Day 7, F
[10] = female, 1 g/kg, 1.0 g/kg/dose BID, Day 1, F
[11] = female, 1 g/kg, 1.0 g/kg/dose BID, Day 7, F
[12] = female, 1.5 g/kg, 1.5 g/kg/dose BID, Day 1, F
[13] = female, 1.5 g/kg, 1.5 g/kg/dose BID, Day 7, F
[14] = male, 0.5 g/kg, 0.5 g/kg/dose BID, Day 1, M
[15] = male, 0.5 g/kg, 0.5 g/kg/dose BID, Day 7, M
[16] = male, 1 g/kg, 1.0 g/kg/dose BID, Day 1, M
[17] = male, 1 g/kg, 1.0 g/kg/dose BID, Day 7, M
[18] = male, 1.5 g/kg, 1.5 g/kg/dose BID, Day 1, M
[19] = male, 1.5 g/kg, 1.5 g/kg/dose BID, Day 7, M

## OC[C@@H](O)[C@@H](O)[C@@H](O)CO [ribitol, (2R,3s,4S)-Pentane-1,2,3,4,5-pentol]
[1]; Bama, minipig, plasma, IV 10 mg/kg, female
  AUC(0-inf): 17 µg·h/mL
[1]; Bama, minipig, plasma, IV 10 mg/kg, female, read-out: T1/2 (converted)
  half-life: 33.4 min
[1]; Bama, minipig, plasma, IV 10 mg/kg, female, read-out: Vss
  Vd: 0.417 L/kg
[1]; Bama, minipig, plasma, IV 10 mg/kg, male
  AUC(0-inf): 11.2 µg·h/mL
[1]; Bama, minipig, plasma, IV 10 mg/kg, male, read-out: T1/2 (converted)
  half-life: 32.7 min
[1]; Bama, minipig, plasma, IV 10 mg/kg, male, read-out: Vss
  Vd: 0.603 L/kg
[1]; Bama, minipig, plasma, IV 30 mg/kg, female
  AUC(0-inf): 57 µg·h/mL
[1]; Bama, minipig, plasma, IV 30 mg/kg, female, read-out: T1/2 (converted)
  half-life: 44.9 min
[1]; Bama, minipig, plasma, IV 30 mg/kg, female, read-out: Vss
  Vd: 0.582 L/kg
[1]; Bama, minipig, plasma, IV 30 mg/kg, male
  AUC(0-inf): 35.8 µg·h/mL
[1]; Bama, minipig, plasma, IV 30 mg/kg, male, read-out: T1/2 (converted)
  half-life: 31.1 min
[1]; Bama, minipig, plasma, IV 30 mg/kg, male, read-out: Vss
  Vd: 0.5 L/kg
[1]; Bama, minipig, plasma, IV 100 mg/kg, female
  AUC(0-inf): 210 µg·h/mL
[1]; Bama, minipig, plasma, IV 100 mg/kg, female, read-out: T1/2 (converted)
  half-life: 59.6 min
[1]; Bama, minipig, plasma, IV 100 mg/kg, female, read-out: Vss
  Vd: 0.434 L/kg
[1]; Bama, minipig, plasma, IV 100 mg/kg, male
  AUC(0-inf): 150 µg·h/mL
[1]; Bama, minipig, plasma, IV 100 mg/kg, male, read-out: T1/2 (converted)
  half-life: 46.4 min
[1]; Bama, minipig, plasma, IV 100 mg/kg, male, read-out: Vss
  Vd: 0.449 L/kg
[1]; IV 10 mg/kg, female
  CLs: 10.1 mL/min/kg
[1]; IV 10 mg/kg, male
  CLs: 15.1 mL/min/kg
[1]; both sexes, Bama, plasma, iv, minipig, range, read-out: T1/2 following the IV dose
  half-life: 31.1 to 59.6 min
[1]; both sexes, Bama, plasma, minipig, IV 10-100 mg/kg, range, read-out: Systemic clearance (CLs)
  clearance: 7.95 to 15.1 mL/min/kg
[1]; both sexes, Bama, plasma, minipig, IV, range, read-out: Volume of distribution at steady state (Vss)
  Vd: 0.417 to 0.603 L/kg
[2]; SAD 0.5-15 g
  dose linearity with exposure: confirmed dose linearity with exposure
[2]; 1.5 g, 1.5 g once daily
  Cmax: 25 µg/mL
  Tmax: 30.2 min
  AUC(0-t): 59.8 µg·h/mL
[2]; 3 g, 3 g once daily
  Cmax: 35.6 µg/mL
  Tmax: 30.2 min
  AUC(0-t): 95 µg·h/mL
[2]; [4]
  Cmax: 38 µg/mL
  Tmax: 30.1 min
  AUC(0-t): 219 µg·h/mL
[2]; [5]
  Cmax: 107 µg/mL
  Tmax: 45 min
  AUC(0-t): 500 µg·h/mL
[2]; [6]
  Cmax: 143 µg/mL
  Tmax: 30.1 min
  AUC(0-t): 673 µg·h/mL
[2]; [7]
  dose limiting toxicity: no dose limiting toxicity was observed
  tolerability: well tolerated
[3]; Day 7 vs Day 1, any dose level
  drug accumulation: no apparent drug accumulation
[3]; after the first dose, Days 1 and 7 (exception females 0.5 g/kg BID Day 1)
  time of maximum plasma concentrations: 6.5 h
[3]; [8]
  Cmax: 141 µg/mL
  Tmax: 30 min
  AUC(0-t): 298 µg·h/mL
[3]; [9]
  Cmax: 100 µg/mL
  Tmax: 390 min
  AUC(0-t): 218 µg·h/mL
[3]; [10]
  Cmax: 282 µg/mL
  Tmax: 390 min
  AUC(0-t): 427 µg·h/mL
[3]; [11]
  Cmax: 210 µg/mL
  Tmax: 390 min
  AUC(0-t): 319 µg·h/mL
[3]; [12]
  Cmax: 339 µg/mL
  Tmax: 390 min
  AUC(0-t): 504 µg·h/mL
[3]; [13]
  Cmax: 266 µg/mL
  Tmax: 390 min
  AUC(0-t): 602 µg·h/mL
[3]; [14]
  Cmax: 121 µg/mL
  Tmax: 390 min
  AUC(0-t): 246 µg·h/mL
[3]; [15]
  Cmax: 118 µg/mL
  Tmax: 390 min
  AUC(0-t): 170 µg·h/mL
[3]; [16]
  Cmax: 265 µg/mL
  Tmax: 390 min
  AUC(0-t): 414 µg·h/mL
[3]; [17]
  Cmax: 237 µg/mL
  Tmax: 390 min
  AUC(0-t): 345 µg·h/mL
[3]; [18]
  Cmax: 316 µg/mL
  Tmax: 390 min
  AUC(0-t): 595 µg·h/mL
[3]; [19]
  Cmax: 305 µg/mL
  Tmax: 390 min
  AUC(0-t): 562 µg·h/mL
